Measurements taken from patent US20130072899A1, “Pharmaceutical Formulations for Iontophoretic Delivery of Gallium” (Nitric BloTherapeutics, Inc., priority 2008, published 2013).
Several values for one entry are separate records, joined by “and”; a condition that tells them apart may be missing. Equal values may be shown once. Read-outs that look alike come from different tables or passages of the source.

How the values were obtained:
[1] = Gallium permeation through full thickness human skin, Franz cells (effect of concentration and iontophoresis duration); type: in vitro ADME; conditions: for Amount of Ga detected in receiver after 70 h / Steady state Ga flux: nitrate hydrate; for increase in gallium permeation compared to passive cells: 16.7% w/v, 70 h
Experimental: Human full thickness skin was stored in the same fashion as the epidermal sheet (Example 3), and a similar Franz cell assembly technique was adopted. The effect of concentration was investigated by applying 16.7, 1.5 and 0.15 % w/v gallium solutions in pH 5.0 citric acid buffer to the donor compartment (0.8 mL). Ten minutes of 400 μA iontophoresis was applied to all of the cells and 0.5 mL samples were removed after 0, 24, 28, 42, 65 and 70 h and replaced with receiver fluid. The gallium in the samples was assayed using the LC ion-exchange method. […] Samples of 0.5 mL were removed for LC ion-exchange assay after 0, 24, 28, 42, 52 and 70 h and replaced with receiver fluid. […] Gallium solutions containing 2.4, 1.6, 0.79, 0.395 and 0.1975 mg of gallium in 20 μL of water were applied to the stratum corneum of the skin samples using a positive displacement pipette (Eppendorf, Cambridge, UK). The samples were then left for 24 h to allow the gallium to permeate the skin. The skin samples were then finely sliced using scissors, chilled and homogenised for five minutes using a T10 Ultra-Turax homogeniser (IKA works, Staufen, Germany) using 30 second pulses. The scalpel, scissors, forceps and homogeniser blades were washed through using 10 mL of PDCA mobile phase concentrate as the extractant. The PDCA concentrate (pH 4.2) was freshly made every week by weighing approximately 5.8 g PDCA, 18.5 g potassium hydroxide, 4.9 g potassium sulphate and 17.0 g of formic acid into a 1000 mL volumetric and making up to volume with DiH2O. The skin-PDCA concentrate homogenate was allowed to mix for a further 24 h before being filtered using 0.45 μm, 30 mm cellulose acetate syringe filters (Orange Scientific, Braine l'Alleud, Belgium). The gallium in the remaining solution was assayed using the LC ion-exchange method. The binding affinity was calculated by subtracting the amount of gallium recovered by the extraction from the amount applied to the skin, in order to gain the amount of gallium still bound to skin in the homogenate. This figure was then divided by the mass of the skin sample to calculate the amount of gallium bound per gram of skin.

[2] = for specific binding affinity of human full thickness skin for gallium (mean): mean of samples A-E, nitrate hydrate
Experimental: Ten minutes of 400 μA iontophoresis was applied to all of the cells and 0.5 mL samples were removed after 0, 24, 28, 42, 65 and 70 h and replaced with receiver fluid. […] Samples of 0.5 mL were removed for LC ion-exchange assay after 0, 24, 28, 42, 52 and 70 h and replaced with receiver fluid. […] The skin samples were then finely sliced using scissors, chilled and homogenised for five minutes using a T10 Ultra-Turax homogeniser (IKA works, Staufen, Germany) using 30 second pulses. The scalpel, scissors, forceps and homogeniser blades were washed through using 10 mL of PDCA mobile phase concentrate as the extractant. […] The skin-PDCA concentrate homogenate was allowed to mix for a further 24 h before being filtered using 0.45 μm, 30 mm cellulose acetate syringe filters (Orange Scientific, Braine l'Alleud, Belgium).

[3] = 0.15% w/v, iontophoresis 10 min, 400 μA, listed as Ga
[4] = 1.5% w/v, iontophoresis 10 min, 400 μA, listed as Ga
[5] = 16.67% w/v, iontophoresis 0 min (passive), listed as Ga
[6] = 16.67% w/v, iontophoresis 0 min (passive)
[7] = 16.67% w/v, iontophoresis 10 min, 400 μA, listed as Ga
[8] = 16.67% w/v, iontophoresis 10 min, 400 μA, listed as gallium
[9] = 16.67% w/v, iontophoresis 60 min, 400 μA, listed as Ga
[10] = 16.67% w/v, iontophoresis 60 min, 400 μA
[11] = Sample D, Ga delivered 0.395 mg
[12] = Sample E, Ga delivered 0.1975 mg

Compound: O=[N+]([O-])[O-].O=[N+]([O-])[O-].O=[N+]([O-])[O-].[Ga+3] [gallium nitrate, Gallium (III) nitrate hydrate]
- Amount of Ga detected in receiver after 70 h [1, 3]: 0.0028 ± 0.006 mg/cm^2
- Steady state Ga flux [1, 3]: 0.008 μg/cm^2/h and 0.008 ± 0.005 μg/cm^2/h
- Amount of Ga detected in receiver after 70 h ([1]; 0.15% w/v, iontophoresis 10 min, 400 μA): 0.0028±0.006 mg/cm^2
- reduction of amount of drug permeating the skin ([1]; 1.5% w/v vs 16.67% w/v Ga, 10 min iontophoresis): 10.6%
- Amount of Ga detected in receiver after 70 h [1, 4]: 0.044 ± 0.034 mg/cm^2
- Steady state Ga flux [1, 4]: 0.9 μg/cm^2/h and 0.900 ± 0.695 μg/cm^2/h
- Amount of Ga detected in receiver after 70 h ([1]; 1.5% w/v, iontophoresis 10 min, 400 μA): 0.0438±0.034 mg/cm^2
- Amount of Ga detected in receiver after 70 h [1, 5]: 0.004 ± 0.011 mg/cm^2
- Steady state Ga flux [1, 5]: 0.009 ± 0.003 μg/cm^2/h
- Amount of Ga detected in receiver after 70 h [1, 6]: 0.004±0.011 mg/cm^2
- Steady state Ga flux [1, 6]: 0.009±0.003 μg/cm^2/h
- Amount of Ga detected in receiver after 70 h [1, 7]: 0.049 ± 0.013 mg/cm^2
- Steady state Ga flux [1, 7]: 0.9 μg/cm^2/h and 0.900 ± 0.238 μg/cm^2/h
- Amount of Ga detected in receiver after 70 h [1, 8]: 0.049±0.013 mg/cm^2
- Steady state Ga flux [1, 8]: 0.9±0.238 μg/cm^2/h
- Amount of Ga detected in receiver after 70 h ([1]; 16.67% w/v, iontophoresis 10 min, 400 μA): 0.049±0.013 mg/cm^2
- Amount of Ga detected in receiver after 70 h [1, 9]: 0.063 ± 0.022 mg/cm^2
- Steady state Ga flux [1, 9]: 1.300 ± 0.450 μg/cm^2/h
- Amount of Ga detected in receiver after 70 h [1, 10]: 0.063±0.022 mg/cm^2
- Steady state Ga flux [1, 10]: 1.3±0.450 μg/cm^2/h
- increase in gallium permeation compared to passive cells ([1]; 10 min iontophoresis): 1125%
- increase in gallium permeation compared to passive cells ([1]; 60 min iontophoresis): 1475%
- % Ga recovery ([2]; Sample A, Ga delivered 2.4 mg): 97.1%
- Binding ([2]; Sample A, Ga delivered 2.4 mg): 0.138 mg/g
- Ga bound to skin ([2]; Sample A, Ga delivered 2.4 mg): 0.07 mg
- Ga recovered ([2]; Sample A, Ga delivered 2.4 mg): 2.33 mg
- % Ga recovery ([2]; Sample B, Ga delivered 1.6 mg): 92.5%
- Binding ([2]; Sample B, Ga delivered 1.6 mg): 0.178 mg/g
- Ga bound to skin ([2]; Sample B, Ga delivered 1.6 mg): 0.12 mg
- Ga recovered ([2]; Sample B, Ga delivered 1.6 mg): 1.48 mg
- % Ga recovery ([2]; Sample C, Ga delivered 0.79 mg): 87.3%
- Binding ([2]; Sample C, Ga delivered 0.79 mg): 0.193 mg/g
- Ga bound to skin ([2]; Sample C, Ga delivered 0.79 mg): 0.1 mg
- Ga recovered ([2]; Sample C, Ga delivered 0.79 mg): 0.69 mg
- % Ga recovery [2, 11]: 73.4%
- Binding [2, 11]: 0.197 mg/g
- Ga bound to skin [2, 11]: 0.105 mg
- Ga recovered [2, 11]: 0.29 mg
- % Ga recovery [2, 12]: 60.8%
- Binding [2, 12]: 0.151 mg/g
- Ga bound to skin [2, 12]: 0.0775 mg
- Ga recovered [2, 12]: 0.12 mg
- specific binding affinity of human full thickness skin for gallium (mean) ([2]; listed as Ga): 0.171 mg/g
- specific binding affinity of human full thickness skin for gallium (mean) [2]: 0.17 ± 0.03 mg/g
